This note sets out measurements from patent US9487479B2, “Small molecule inhibitors of N-terminus activation of the androgen receptor” (The University of British Columbia, priority 2008, dated 2016).

The target of assay [1] is T1, AR NTD-Gal4DBD chimera protein (Gal4DBD-AR1-558) (Homo sapiens, UniProt P10275).
T1 construct: co-transfected with the expression vector for Gal4DBD-AR1-558; expressed in transfected cells; host or cells: LNCaP cells
T1 sequence (P10275 1-558): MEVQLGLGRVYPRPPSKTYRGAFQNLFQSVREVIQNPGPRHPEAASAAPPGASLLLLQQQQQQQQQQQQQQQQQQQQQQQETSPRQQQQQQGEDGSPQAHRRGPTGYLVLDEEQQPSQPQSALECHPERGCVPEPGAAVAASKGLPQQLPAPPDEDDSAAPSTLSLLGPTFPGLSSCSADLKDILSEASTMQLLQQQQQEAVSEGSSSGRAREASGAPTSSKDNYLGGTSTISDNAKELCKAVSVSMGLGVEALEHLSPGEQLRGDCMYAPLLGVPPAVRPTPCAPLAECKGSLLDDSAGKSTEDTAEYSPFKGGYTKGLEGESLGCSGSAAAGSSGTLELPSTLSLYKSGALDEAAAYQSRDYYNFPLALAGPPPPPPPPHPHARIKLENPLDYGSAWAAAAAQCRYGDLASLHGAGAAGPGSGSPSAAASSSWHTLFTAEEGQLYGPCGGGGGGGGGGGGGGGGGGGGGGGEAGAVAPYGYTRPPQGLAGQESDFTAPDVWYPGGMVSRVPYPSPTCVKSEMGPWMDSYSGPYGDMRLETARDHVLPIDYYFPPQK
In words: FSK-induced transactivation of the AR NTD (Gal4-luciferase reporter in LNCaP cells). The format is cell-based. Conditions: 5 μg/ml, 1 hr pretreatment, FSK 50 μM for 24 h. The method, then: Sintokamide A (CB3.1) (5 μg/ml) was tested for its ability to inhibit the AR NTD. LNCaP cells were co-transfected with the expression vector for Gal4DBD-AR1-558 and the complimentary 5XGal4UAS-luciferase reporter. Induction of this reporter by FSK is a measure of transactivation of the Gal4DBD-AR1-558 fusion protein (Sadar 1999 J. Biol. Chem. 274, 7777-7783).
To determine if CB3.1 blocked transactivation of the AR NTD, LNCaP cells were transfected with the plasmids for the AR NTD-Gal4DBD chimera protein and the Gal4-luciferase reporter and pretreated for 1 hr with CB3.1 (5 μg/ml) prior to addition of forskolin (FSK 50 μM) for an additional 24 h (see: Sadar et al. (1999) J. Biol. Chem. 274:7777-83).
In general terms: In a reporter assay the amount or activity of a reporter protein is the signal.

Assay [2] has as its target T2, androgen receptor (AR) (Homo sapiens, UniProt P10275, T878A).
T2 construct: endogenous in cells; host or cells: LNCaP human prostate cancer cells
T2 sequence (P10275 1-920 T878A): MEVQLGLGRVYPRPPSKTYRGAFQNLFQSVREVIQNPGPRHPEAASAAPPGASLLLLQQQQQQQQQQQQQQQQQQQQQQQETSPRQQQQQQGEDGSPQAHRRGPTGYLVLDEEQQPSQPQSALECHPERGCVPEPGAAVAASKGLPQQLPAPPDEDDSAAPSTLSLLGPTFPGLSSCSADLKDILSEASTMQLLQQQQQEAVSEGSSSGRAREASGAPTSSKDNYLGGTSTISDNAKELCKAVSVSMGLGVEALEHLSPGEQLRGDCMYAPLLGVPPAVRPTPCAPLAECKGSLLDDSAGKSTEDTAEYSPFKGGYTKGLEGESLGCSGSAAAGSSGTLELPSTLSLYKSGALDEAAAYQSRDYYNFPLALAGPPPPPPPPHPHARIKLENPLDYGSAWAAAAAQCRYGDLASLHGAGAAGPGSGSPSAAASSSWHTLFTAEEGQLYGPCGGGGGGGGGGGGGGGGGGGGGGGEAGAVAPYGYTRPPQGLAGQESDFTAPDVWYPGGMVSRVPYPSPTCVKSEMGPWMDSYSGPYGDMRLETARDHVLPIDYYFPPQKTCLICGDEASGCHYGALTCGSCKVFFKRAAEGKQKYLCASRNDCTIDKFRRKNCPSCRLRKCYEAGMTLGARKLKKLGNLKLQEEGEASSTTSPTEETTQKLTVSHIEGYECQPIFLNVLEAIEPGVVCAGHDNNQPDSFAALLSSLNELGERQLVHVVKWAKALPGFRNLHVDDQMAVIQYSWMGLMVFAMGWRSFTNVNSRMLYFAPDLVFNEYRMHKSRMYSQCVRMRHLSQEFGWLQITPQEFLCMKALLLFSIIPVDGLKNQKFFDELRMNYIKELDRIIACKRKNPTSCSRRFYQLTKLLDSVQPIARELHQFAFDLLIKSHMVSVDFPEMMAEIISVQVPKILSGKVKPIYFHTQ
In words: PSA (6.1 kb)-luciferase reporter assay in LNCaP cells. The format is cell-based. The following applies: 5 μg/ml. The method, then:
White bars represent no steroid (ethanol control). Wherein glucocorticoid receptor (GR) and progesterone receptor (PR).
The cells were harvested 24 hours later and analyzed for luciferase activity. The data is normalized to protein that was measured using Bradford assay.
Sequence similarities of amino acids in the AR with related human steroid receptors (glucocorticoid receptor (GR) and progesterone receptor (PR)) are significant in some domains such as the DNA-binding-domain (DBD). Although the AR-NTD shares less than 15% homology with the PR and GR, these receptors do interact with some of the same proteins such as SRC-1 (steroid receptor coactivator-1). […] Cells were co-transfected with expression plasmids for full-length hGR and PRβ and the relative reporter (i.e., pGR-Luc or PRE-E1b-Luc reporters). Cells were then treated with ethanol vehicle, dexamethasone (GR), 4-pregnene-3,20 dione (progesterone) (PR) followed by measurement of luciferase activity.
Activation of the endogenous AR was measured in LNCaP human prostate cancer cells by measuring an androgen-responsive reporter containing androgen response elements (AREs). The PSA (6.1 kb)-luciferase reporter gene construct contains several well-characterized AREs and is induced by androgen.

The test system of assay [3] is PSA mRNA. The assay is described as follows: Androgen-induced PSA mRNA levels in LNCaP cells (qRT-PCR). It is filed as cell-based, human. Conditions: 10 μg/ml, 1 hour pretreatment, R1881 1 nM, 16 hours. The protocol: Levels of PSA mRNA were measured by quantitative real-time (qRT)-PCR and normalized to levels of GAPDH mRNA (housekeeping gene). White bar: no R1881. Black bars: R1881 (1 nM). MNE: mean normalized expression. DMSO (no R1881) was arbitrarily set at 1.0 for each individual experiment. Bars represent the mean±SE from 3 separate experiments using triplicate technical samples from each experiment.
PSA is an androgen-regulated gene containing several well-characterized androgen response elements (AREs) in the enhancer and promoter regions. Levels of PSA mRNA are induced by androgen by a mechanism dependent androgen receptor. To test if sintokamides would also block endogenous gene expression induced by androgen, levels of PSA mRNA were measured in response to the synthetic androgen R1881.
Background: Quantitative PCR measures a nucleic acid by following its amplification.

In the case of `CCC(=O)N[C@H](C[C@H](C)C(Cl)(Cl)Cl)C(=O)N1C(=O)C=C(OC)[C@@H]1C[C@H](C)C(Cl)Cl` [CB3.1, Sintokamide A], the “FSK-induced transactivation of the AR NTD” value in assay [1] is reported as “reduced FSK-induced transactivation of the AR NTD to baseline levels”. In addition, the “inhibition of R1881 induction of PSA (6.1)-luciferase” value in assay [2] (1 hour pretreatment, R1881 1 nM, 24 hours) is “inhibition”. Also, the “AR activity measured with the PSA (6.1) luciferase reporter” value in assay [2] (steroid 10 nM, 24 h) is listed as “strongly inhibited”. Also, the “inhibition of androgen-induced levels of PSA mRNA” value in assay [3] is “inhibit”.
